Patent publication US20130117887A1, “Herbicide resistant Camelina Sativa” (Agragen Inc, priority 2010, published 2013)

How the values were obtained:
[1] = test system: transgenic C. sativa cv. Celine lines VK6-A1-No24 and VK6-A1-No26 (35S promoter, ALS W574 mutant); assay: In vitro leaf segment test, transgenic lines; type: cell-based, Camelina sativa; conditions: media with 0.001, 0.01, 0.1, 1.0 mg/l herbicide, FIG. 13
Source text: (§1) FIG. 13 In vitro leaf segment test of two transgenic C. sativa cv. Celine lines VK6-A1-No24 (shown as 24 on Petri dishes) and VK6-Al-No26 (shown as 26 on Petri dishes). As a control, leaf segments of herbicide resistant natural mutant of Camelina microcarpa (C.m.) and leaf segments of susceptible C. sativa (C.s.) were used. Leaf segments of transgenic plants are resistant to the herbicides, while non-transgenic Camelina sativa is susceptible. The media in Petri dishes contains herbicides in various concentrations from 0 mg/l in control plate to 0.001, 0.01, 0.1, 1.0 mg/l of IMI, MSU and CSU.
(§2) Celine lines VK6-A1-No24 and VK6-A1-No26 transformed with Al construct (35S promoter—ALS W574 mutant—35S terminator). As controls, we used leaf segments of herbicide resistant natural ALS mutant of Camelina microcarpa that has broad resistance to class-2 herbicides and leaf segments of susceptible Camelina sativa. From the figure it can be clearly seen that leaf segments of transgenic plants are resistant to the herbicides, while non-transgenic Camelina sativa is susceptible.

[2] = test system: transgenic Camelina sativa lines bearing A122T mutated ALS gene; assay: Seedling herbicide assay, transgenic lines bearing A-mutated (A122T) ALS gene; type: in vivo; conditions: for Effect as compared to control / Highest surviving concentration: T1, A122T
Experimental: Calena, as well as A9.1 (VK14A9.1) and A9.2 (VK14A9.4.2) of the second generation (T1) Camelina sativa v. Blane Creek. The seedlings were grown one week on the various concentrations of herbicides MSU, CSU and IMI. The concentrations are shown in mg/l. Control plate has no herbicide in the grown media.
(§3) Seedlings of the developed transgenic lines of Camelina sativa, cultivars Blane Creek and Calena second (T1) and fourth (T3) generations were exposed to various concentration of three herbicides: imidazolinone (IMI), chlorsulfuron (CSU) and metsulfuron (MSU). Resistance of the transgenic lines was compared to control non-transgenic seedlings of C. sativa cv. Blane Creek.
(§4) Seeds were sterilized in 2% Na-hypocloride and placed on wet filter paper in sterile conditions to allow germination. On the next day well-germinated seedlings were transferred on Petri dishes containing MS (Murasige-Scoog) 0.7% agar (without sucrose or hormones). Each dish contained one from the three herbicides in particular concentration (0.0001, 0.001, 0.01, 0.1, 1.0, 10, 100 mg/l). After one week of cultivation in vitro (+25° C./+18° C.; light/dark) the seedlings were photographed (as shown on the FIGS. 16A-16F). The highest survival concentration was found for each transgenic line and for each herbicide and compared to the non-transgenic control.

[3] = test system: transgenic Camelina sativa lines bearing A122T-P197S-W574L mutated ALS gene; assay: Seedling herbicide assay, transgenic lines bearing triple (APW) mutated ALS gene; type: in vivo; conditions: Blane Creek, T3, A122T-P197S-W574L
Experimental: Blane Creek. The seedlings were grown one week on various concentrations of herbicides MSU, CSU and IMI. The concentrations are shown in mg/l. Control plate has no herbicide in the grown media.
as §3, §4

[4] = test system: non-transgenic seedlings of C. sativa cv. Blane Creek (wild type); assay: Seedling herbicide assay, highest survival concentration, non-transgenic control; type: in vivo, Camelina sativa; conditions: for Highest surviving concentration: seedlings one week on MS agar
Source text: as §3, §4

[5] = test system: non-transgenic susceptible Camelina sativa leaf segments; assay: In vitro leaf segment test, non-transgenic control; type: cell-based; conditions: media with 0.001, 0.01, 0.1, 1.0 mg/l herbicide, FIG. 13
Source text: as §1, §2

[6] = test system: transgenic Camelina sativa lines bearing P197S-W574L mutated ALS gene; assay: Seedling herbicide assay, transgenic lines bearing double (PW) mutated ALS gene; type: in vivo; conditions: for Effect as compared to control / Highest surviving concentration: Blane Creek, T3, P197S-W574L
Experimental: Blane Creek. The seedlings were grown one week on the various concentrations of herbicides MSU, CSU and IMI. The concentrations are shown in mg/l. Control plate has no herbicide in the growth media.
as §3, §4

[7] = test system: transgenic Camelina sativa lines bearing W574L mutated ALS gene; assay: Seedling herbicide assay, transgenic lines bearing W-mutated (W574L) ALS gene; type: in vivo; conditions: for Effect as compared to control / Highest surviving concentration: Blane Creek
Experimental: Blane Creek and ALS23.3 (VK10A2.3) of the […] (T3) of Camelina sativa v. Blane Creek. The seedlings were grown one week on various concentrations of herbicides MSU, CSU and IMI. The concentrations are shown in mg/l. Control plate has no herbicide in the grown media.
as §3, §4

[8] = test system: transgenic Camelina sativa lines bearing P197S mutated ALS gene; assay: Seedling herbicide assay, transgenic lines bearing P-mutated (P197S) ALS gene; type: in vivo; conditions: for Effect as compared to control / Highest surviving concentration: T1, P197S
Experimental: Calena and A 10 (VK14A10.16) of the second generation (T1) Camelina sativa c. Blane Creek. The seedlings were grown one week on various concentrations of herbicides MSU, CSU and IMI. The concentrations are shown in mg/l.
as §3, §4

[9] = line A9.1 (VK14A9.1), Blane Creek
[10] = line A9.2 (VK14A9.4.2), Blane Creek
[11] = line ALS23.3 (VK10A2.3), T3, W574L
[12] = line A10 (VK14A10.16), Blane Creek

Row | SMILES | response of leaf segments to the herbicides [1] | Effect as compared to control ([2]; line A3 (VK9A3.4.1), Calena) | Highest surviving concentration ([2]; line A3 (VK9A3.4.1), Calena) | Effect as compared to control [2, 9] | Highest surviving concentration [2, 9] | Effect as compared to control [2, 10] | Highest surviving concentration [2, 10] | Effect as compared to control ([3]; line ALS 11.3 (VK10A5.3)) | Highest surviving concentration ([3]; line ALS 11.3 (VK10A5.3)) | Effect as compared to control ([3]; line ALS22.3 (VK13A15.12)) | Highest surviving concentration ([3]; line ALS22.3 (VK13A15.12)) | Effect as compared to control [4] | Highest surviving concentration [4] | response of leaf segments to the herbicides [5] | Effect as compared to control ([6]; line ALS7.3 (KK24A14.4)) | Highest surviving concentration ([6]; line ALS7.3 (KK24A14.4)) | Effect as compared to control ([6]; line ALS8.3 (KK18A8)) | Highest surviving concentration ([6]; line ALS8.3 (KK18A8)) | spectrum of resistance of mutation W [7] | Effect as compared to control ([7]; line A2 (VK10A2.2), T1, W574L) | further results
1 | COc1nc(C)nc(NC(=O)NS(=O)(=O)c2ccccc2Cl)n1 [CSU, Chlorsulfuron] | resistant | 10 | 0.01 mg/L | 1 | 0.001 mg/L | 10 | 0.01 mg/L | 10 000 | 10 mg/L | 10 000 | 10 mg/L | 1 | 0.001 mg/L | susceptible | 10 000 | 10 mg/L | 10 000 | 10 mg/L | good resistance | 10 000 | Highest surviving concentration ([7]; line A2 (VK10A2.2), T1, W574L): 10 mg/L; Effect as compared to control [7, 11]: 1 000; Highest surviving concentration [7, 11]: 1.0 mg/L; spectrum of resistance of mutation P [8]: specifically increased resistance; Effect as compared to control ([8]; line A4 (VK9A4.4.2), Calena): 10 000; Highest surviving concentration ([8]; line A4 (VK9A4.4.2), Calena): 10 mg/L; Effect as compared to control [8, 12]: 1 000; Highest surviving concentration [8, 12]: 1.0 mg/L
2 | COC(=O)c1ccccc1S(=O)(=O)NC(=O)Nc1nc(C)nc(OC)n1 [MSU, Metsulfuron-methyl] | resistant | 10 | 0.01 mg/L | 1 | 0.001 mg/L | 1 | 0.001 mg/L | 100 | 0.1 mg/L | 1 000 | 1.0 mg/L | 1 | 0.001 mg/L | susceptible | 1 000 | 1.0 mg/L | 1 000 | 1.0 mg/L | less effective | 100 | increase in resistance as compared to non-transgenic control ([6]; lines bearing double mutations PW): 1 000; Highest surviving concentration ([7]; line A2 (VK10A2.2), T1, W574L): 0.1 mg/L; Effect as compared to control [7, 11]: 100; Highest surviving concentration [7, 11]: 0.1 mg/L; Effect as compared to control ([8]; line A4 (VK9A4.4.2), Calena): 10; Highest surviving concentration ([8]; line A4 (VK9A4.4.2), Calena): 0.01 mg/L; Effect as compared to control [8, 12]: 10; Highest surviving concentration [8, 12]: 0.01 mg/L
3 | COCc1cnc(C2=NC(C)(C(C)C)C(=O)N2)c(C(=O)O)c1 (stereo not drawn) [IMI, Imazamox] | resistant | 1 000 | 10 mg/L | 100 | 1.0 mg/L | 1 000 | 10 mg/L | 1 000 | 10 mg/L | 1 000 | 10 mg/L | 1 | 0.01 mg/L | susceptible | 1 000 | 10 mg/L | 1 000 | 10 mg/L | good resistance | 10 000 | spectrum of resistance of mutation A [2]: specifically increased resistance; Highest surviving concentration ([7]; line A2 (VK10A2.2), T1, W574L): 100 mg/L; Effect as compared to control [7, 11]: 1 000; Highest surviving concentration [7, 11]: 10 mg/L; Effect as compared to control ([8]; line A4 (VK9A4.4.2), Calena): 10; Highest surviving concentration ([8]; line A4 (VK9A4.4.2), Calena): 0.1 mg/L; Effect as compared to control [8, 12]: 10; Highest surviving concentration [8, 12]: 0.1 mg/L
